Source: US7378440B2, “Substituted benzoylureido-o-benzoylamides, process for their preparation and their use” (Sanofi-Aventis Deutschland GmbH, priority 2003, dated 2008)

Key:
[1] = biological target: T1, human glycogen phosphorylase a (Homo sapiens, UniProt P06737); assay: Glycogen phosphorylase a activity assay; assay type: biochemical; details: inhibition of GPa measured in reverse direction (glycogen synthesis from glucose 1-phosphate, liberated phosphate, absorption 820 nm)
T1 sequence (P06737 1-847): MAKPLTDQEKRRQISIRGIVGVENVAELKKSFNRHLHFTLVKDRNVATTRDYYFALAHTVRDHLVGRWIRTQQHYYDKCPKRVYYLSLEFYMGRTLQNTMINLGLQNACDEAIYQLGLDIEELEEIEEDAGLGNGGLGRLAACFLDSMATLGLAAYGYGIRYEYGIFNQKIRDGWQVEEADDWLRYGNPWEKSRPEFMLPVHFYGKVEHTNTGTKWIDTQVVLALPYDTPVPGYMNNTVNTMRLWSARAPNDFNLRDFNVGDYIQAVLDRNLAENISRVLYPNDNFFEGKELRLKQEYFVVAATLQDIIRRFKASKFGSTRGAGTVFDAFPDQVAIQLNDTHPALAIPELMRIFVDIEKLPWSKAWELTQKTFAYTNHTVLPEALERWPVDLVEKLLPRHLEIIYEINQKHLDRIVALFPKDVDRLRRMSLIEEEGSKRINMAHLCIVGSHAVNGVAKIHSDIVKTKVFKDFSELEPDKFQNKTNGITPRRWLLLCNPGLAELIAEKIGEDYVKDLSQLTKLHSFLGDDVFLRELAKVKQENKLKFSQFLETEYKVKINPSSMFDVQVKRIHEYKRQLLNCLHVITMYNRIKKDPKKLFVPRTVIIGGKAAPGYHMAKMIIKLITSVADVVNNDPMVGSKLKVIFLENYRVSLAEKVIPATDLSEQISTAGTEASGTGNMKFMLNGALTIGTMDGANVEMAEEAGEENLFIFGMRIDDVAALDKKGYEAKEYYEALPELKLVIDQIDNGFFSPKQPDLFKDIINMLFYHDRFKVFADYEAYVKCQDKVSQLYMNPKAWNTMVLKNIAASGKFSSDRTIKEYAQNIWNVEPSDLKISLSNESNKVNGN
Procedure: Glycogen Phosphorylase a Activity Assay
The effect of compounds on the activity of the active form of glycogen phosphorylase (GPa) was measured in the reverse direction by following the synthesis of glycogen from glucose 1-phosphate by determining the liberation of inorganic phosphate. All the reactions were carried out as duplicate determinations in microtiter plates with 96 wells (Half Area Plates, Costar No 3696), measuring the change in absorption owing to the formation of the reaction product at the wavelength specified hereinafter in a Multiskan Ascent Elisa Reader (Lab Systems, Finland).
In order to measure the GPa enzymic activity in the reverse direction, the general method of Engers et al. (Engers H D, Shechosky S, Madsen N B, Can J Biochem 1970 July;48(7):746-754) was used to measure the conversion of glucose 1-phosphate into glycogen and inorganic phosphate, with the following modifications: human glycogen phosphorylase a (for example with 0.76 mg of protein/ml (Aventis Pharma Deutschland GmbH), dissolved in buffer solution E (25 mM β-glycerophosphate, pH 7.0, 1 mM EDTA and 1 mM dithiothreitol) was diluted with buffer T (50 mM Hepes, pH 7.0, 100 mM KCl, 2.5 mM EDTA, 2.5 mM MgCl2.6H2O) and addition of 5 mg/ml glycogen to a concentration of 10 μg of protein/ml. Test substances were prepared as 10 mM solution in DMSO and diluted to 50 μM with buffer solution T. To 10 μl of this solution were added 10 μl of 37.5 mM glucose, dissolved in buffer solution T, and 5 mg/ml glycogen, plus 10 μt of a solution of human glycogen phosphorylase a (10 μg of protein/ml) and 20 μl of glucose 1-phosphate, 2,5 mM. The baseline glycogen phosphorylase a activity in the absence of test substance was determined by adding 10 μl of buffer solution T (0.1% DMSO). The mixture was incubated at room temperature for 40 minutes, and the liberated […] was measured by the general method of Drueckes et al. (Drueckes P, Schinzel R, Palm D, Anal Biochem 1995 Sep. 1;230(1):173-177) with the following modifications: 50 μl of a stop solution of 7.3 mM ammonium molybdate, 10.9 mM zinc acetate, 3.6% ascorbic acid, 0.9% SDS are added to 50 μl of the enzyme mixture. After incubation at 45° C. for 60 minutes, the absorption at 820 nm was measured. To determine the background absorption, in a separate mixture the stop solution was added immediately after addition of the glucose 1-phosphate solution. […]

SMILES	melting point [°C]	IC50 [1] [nM]
O=C(NC(=O)c1cc(F)c(F)cc1Cl)Nc1ccccc1C(=O)N1CC(F)(F)CC1C(=O)O (stereo not shown) [Example 6]	102	1400
O=C(NC(=O)c1cc(F)c(F)cc1Cl)Nc1ccccc1C(=O)N1CCC1C(=O)O (stereo not shown) [Example 5]	99	30
COC(=O)[C@H]1CCCN1C(=O)c1ccccc1NC(=O)NC(=O)c1cc(F)c(F)cc1Cl [Example 4]		570
O=C(NC(=O)c1cc(F)c(F)cc1Cl)Nc1ccccc1C(=O)N1CCCC1C(=O)O (stereo not shown) [Example 3]	193.1	120
O=C(NC(=O)c1cc(F)c(F)cc1Cl)Nc1ccccc1C(=O)N1CCC[C@@H]1C(=O)O [Example 1, R-1-{2-[3-(2-Chloro-4,5-difluorobenzoyl)ureido]benzoyl}pyrrolidine-2-carboxylic acid]	123.5	30
O=C(NC(=O)c1cc(F)c(F)cc1Cl)Nc1ccccc1C(=O)N1C2CCCCC2C[C@H]1C(=O)O (stereo partly shown) [Example 7]	125	4000
O=C(NC(=O)c1cc(F)c(F)cc1Cl)Nc1ccccc1C(=O)N1CCC[C@H]1C(=O)O [Example 2]	128.4	2100
